These results are taken from patent publication US6174909A, “4-aminotetrahydrobenzisoxazole or -isothiazole compounds” (H. Lundbeck A/S, priority 1995, dated 2001).

pIC50: −log10 of the molar value. Structures can show the parent of a compound that is named as a salt.

One may read the pIC50 as the negative decadic logarithm of the IC50, by convention in mol/L. A low value points to a high IC50. Broadly, the ED50 is the midpoint of the dose-response relation. Lower therefore signals greater potency.

Experiment [1] relates to GABA uptake in synaptosomes. Nature of the experiment: GABA uptake inhibition in synaptosomes (overall, i.e. neuronal and glial). It counts as biochemical. The following applies: values marked * = Preliminary Data. Here is the method: The inhibition of GABA Uptake was performed by the method described by Falch et. al, Drug Dev. Res., 1990,21, 169-188. By this method the overall, i.e. neuronal and glial, inhibition of GABA uptake is determined.

Experiment [2] deals with isoniazide induced convulsions in mice. Briefly: Isoniazid antagonism (antagonism of isoniazide induced convulsions in mice). The format is in vivo, mice (male NMRI/BOM). The following applies: Mus musculus, sc, 30 min before 300 mg isoniazide s.c., protected = no convulsions within 60 min, log probit analysis. The method, then:
The test is a test for antagonism of isoniazide induced convulsions in mice.
The test substance is given s.c. to mice (male NMRI/BOM, body weight 20-25 g) and 30 min later 300 mg isoniazide is given s.c. Five mice are used per dose and a control group only receiving isoniazide is included. This dose of isoniazide induces intermittent tonic seizures.
The animals are placed individually in Macrolon type II cages and the time when convulsions first occur is recorded. The experiment is stopped after 90 min. The animals that have not had convulsions within 60 min. are recorded as + (protected). The results, i.e. the number of protected mice pr number of tested mice are stated in fractions as follows: 0/5, 1/5 . . . , 5/5.

Turning to `Oc1noc2c1C(NCCCC(c1ccc(F)cc1)c1ccc(F)cc1)CCC2` (racemic) [Compound 8b, (R,S)-4-[4,4-Bis(4-fluorophenyl)butan-1-ylamino]-3-hydroxy-4,5,6,7-tetrahydro-1,2-benzisoxazole, hydrobromide], the pIC50 in experiment [1] is 6.62. In experiment [2], this compound yielded a 50% effective dose (ED50) of 110 µmol/kg.

Consider `CNC1CCCc2on(C(=O)NCc3ccccc3)c(=O)c21` (racemic) [Compound 15c], for which the negative logarithm of the IC50 (pIC50) in experiment [1] was 4.08. In addition, in experiment [2], the ED50 is over 120 µmol/kg.

In experiment [1], `Oc1noc2c1C(NCCCC(c1ccccc1)c1ccccc1)CCC2` (racemic) [Compound 8g, (R,S)-4-(4,4-diphenylbutan-1-ylamino]-3-hydroxy-4,5,6,7-tetrahydro-1,2-benzisoxazole, hydrobromide] gave a pIC50 of 6.77. The same compound yielded a 50% effective dose (ED50) in experiment [2] of 56 µmol/kg.

For `CC(=O)OCCNC1CCCc2onc(O)c21` (racemic) [Compound 8c, (R,S)-4-(2-Acetyloxyethylamino)-3-hydroxy-4,5,6,7-tetrahydro-1,2-benzisoxazole, hydrobromide], the pIC50 in experiment [1] is 3.92. Moreover, the 50% effective dose (ED50) in experiment [2] is over 120 µmol/kg.

Turning to `CN(CCOC(c1ccc(Cl)cc1)c1ccc(Cl)cc1)C1CCCc2onc(O)c21` (racemic) [Compound 16b, (R,S)-4-[N -[bis (4-chlorophenyl)methyl-2-oxyethyl]-N -methylamino]-3-hydroxy-4,5,6,7-tetrahydro-1,2-benzisoxazole, sodium salt], the pIC50 in experiment [1] was 5.31. Moreover, in experiment [2], the median effective dose (ED50) came to 81 µmol/kg.

As for `CNC1CCCc2onc(O)c21` (single isomer, unassigned; (+)) [Compound 6c, (+)-3-hydroxy-4-methylamino-4,5,6,7-tetrahydro-1,2-benzisoxazole, hydrobromide], the pIC50 in experiment [1] (hydrobromide) is 4.38. In addition, the ED50 in experiment [2] was over 320 µmol/kg.

In experiment [1], `CCNC1CCCc2onc(O)c21` (racemic) [Compound 8e, (R,S)-4-Ethylamino-3-hydroxy-4,5,6,7-tetrahydro-1,2-benzisoxazole, hydrobromide] showed a pIC50 of 4.00. In experiment [2], this compound had a 50% effective dose (ED50) of over 300 µmol/kg.

In the case of `Cc1ccsc1C(=CCCN(C)C1CCCc2onc(O)c21)c1sccc1C` (racemic) [Compound 16d, (R,S)-4-[N-(4,4-bis[3-methylthien-2-yl]-3-butenyl)-N-methylamino]-3-hydroxy-4,5,6,7-tetrahydro-1,2-benzisoxazole hydrochloride], the pIC50 in experiment [1] was 6.51. For the same compound, the 50% effective dose (ED50) in experiment [2] was 63 µmol/kg.

Compound `Oc1noc2c1C(N1CCCC1)CCC2` (racemic) [Compound 8d, (R,S)-3-Hydroxy-4-(1-pyrrolidinyl)-4,5,6,7-tetrahydro-1,2-benzisoxazole, hydrobromide] showed a negative logarithm of the IC50 (pIC50) in experiment [1] of 3.68. This compound showed an ED50 in experiment [2] of over 140 µmol/kg.

In turn, `CN(CCC=C(c1ccccc1)c1ccccc1)C1CCCc2onc(O)c21` (racemic) [Compound 20a, (R,S)-3-Hydroxy-4-[N-(4,4-diphenyl-3-butenyl)methylamino]4,5,6,7-tetrahydro-1,2-benzisoxazole, hydrochloride] gave a pIC50 in experiment [1] of 6.43. For the same compound, the ED50 in experiment [2] turned out to be 97 µmol/kg.

As to `CNC1CCCc2on(C(=O)Nc3ccccc3)c(=O)c21` (racemic) [Compound 15a, (R,S)-4-methylamino-2-phenylaminocarbonyl4,5,6,7-tetrahydro-1,2benzisoxazol-3-one, hydrochloride], in experiment [1], the pIC50 is 4.15. In addition, the 50% effective dose (ED50) in experiment [2] is over 120 µmol/kg.
